Experimental data as given in article PMC8546889 (Acta Pharmaceutica Sinica. B, 2021).
Read-outs that look alike come from different tables or passages of the source. Each block holds one molecule with its values, some of them ahead of it.

Key:
HT-29 cells [1] = experiment: Anti-necroptosis activity assay; type: cell-based, human; conditions: for anti-necroptosis activity improvement compared with TAK-632: EC50 ratio versus TAK-632; for EC50: Homo sapiens, HT-29, read-out: Anti-necroptosis (EC50)
RIP3 [2] = biological target: T1, RIP3 (Homo sapiens, UniProt Q9Y572); experiment: KINOMEscan kinase binding assay, RIP3
Cytotoxicity = type: cell-based
RIP1 [3] = biological target: T2, RIP1 (Homo sapiens, UniProt Q13546); experiment: KINOMEscan kinase binding assay, RIP1; conditions: for RIP1 selectivity: RIP1 over RIP3 (Kd ratio)
T2 sequence (Q13546 1-671): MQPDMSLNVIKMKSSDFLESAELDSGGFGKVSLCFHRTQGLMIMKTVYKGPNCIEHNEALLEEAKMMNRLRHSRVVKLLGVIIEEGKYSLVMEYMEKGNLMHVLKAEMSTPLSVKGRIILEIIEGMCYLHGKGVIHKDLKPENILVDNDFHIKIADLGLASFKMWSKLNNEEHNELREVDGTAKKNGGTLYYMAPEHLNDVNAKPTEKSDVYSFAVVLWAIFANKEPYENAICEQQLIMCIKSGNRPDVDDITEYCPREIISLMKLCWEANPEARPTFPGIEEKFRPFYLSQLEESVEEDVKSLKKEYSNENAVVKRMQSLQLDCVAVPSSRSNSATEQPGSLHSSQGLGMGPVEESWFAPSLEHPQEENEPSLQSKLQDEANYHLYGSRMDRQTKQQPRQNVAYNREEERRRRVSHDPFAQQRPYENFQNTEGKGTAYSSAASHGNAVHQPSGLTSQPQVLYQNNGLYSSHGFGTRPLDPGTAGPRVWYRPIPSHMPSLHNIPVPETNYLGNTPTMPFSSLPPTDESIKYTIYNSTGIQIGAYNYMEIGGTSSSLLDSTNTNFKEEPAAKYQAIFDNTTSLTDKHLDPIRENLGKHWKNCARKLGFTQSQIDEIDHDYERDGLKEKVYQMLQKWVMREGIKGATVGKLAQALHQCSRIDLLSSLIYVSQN

[4] = test system: phosphorylation of RIP1, RIP3, and MLKL; experiment: Immunoblotting of necroptosis pathway phosphorylation in TSZ-induced HT-29 cells; type: cell-based, human; conditions: 1 μmol/L
C57BL/6 J mice [5] = experiment: DSS-induced UC model; type: in vivo
RIP1 [6] = biological target: T2, RIP1; experiment: Drug affinity responsive target stability assay; conditions: 50 μmol/L, HT-29 cell lysates, 0.1% Pronase 30 min
RIP1-RIP3 necrosome = biological target: T3, RIP1-RIP3 necrosome (Homo sapiens, UniProt Q13546); experiment: Immunoprecipitation of RIP1-RIP3 necrosome; conditions: HT-29 cells, 1 μmol/L, 6 h
T3 sequence (Q13546 1-671): T2 sequence (Q13546 1-671)

PK study in mice = type: in vivo; conditions: male, ICR, mouse, plasma; for AUC: mice
HT-29 cells [7] = experiment: TCZ-induced necroptosis in HT-29 cells; type: cell-based, human; conditions: TCZ 24 h
L929 cells = experiment: TZ-induced necroptosis in L929 cells; conditions: mTNF-α and Z-VAD-FMK (TZ), 9 h
HT-29 cells [8] = experiment: Apoptosis model induced by TC or TS in HT-29 cells; type: cell-based, human; conditions: different concentrations
RIP3 [9] = biological target: T1, RIP3; experiment: Drug affinity responsive target stability assay; conditions: 50 μmol/L, HT-29 cell lysates, 0.1% Pronase 30 min
healthy mice = experiment: Single-dose acute oral toxicity test; type: in vivo
C57BL/6 J mice [10] = experiment: TNF-α-induced systemic inflammatory response syndrome; conditions: for survival rate of SIRS mice: over 60 h
[11] = read-out: Cytotoxicity (CC50); cited from earlier work

T1 sequence (Q9Y572 whole entry): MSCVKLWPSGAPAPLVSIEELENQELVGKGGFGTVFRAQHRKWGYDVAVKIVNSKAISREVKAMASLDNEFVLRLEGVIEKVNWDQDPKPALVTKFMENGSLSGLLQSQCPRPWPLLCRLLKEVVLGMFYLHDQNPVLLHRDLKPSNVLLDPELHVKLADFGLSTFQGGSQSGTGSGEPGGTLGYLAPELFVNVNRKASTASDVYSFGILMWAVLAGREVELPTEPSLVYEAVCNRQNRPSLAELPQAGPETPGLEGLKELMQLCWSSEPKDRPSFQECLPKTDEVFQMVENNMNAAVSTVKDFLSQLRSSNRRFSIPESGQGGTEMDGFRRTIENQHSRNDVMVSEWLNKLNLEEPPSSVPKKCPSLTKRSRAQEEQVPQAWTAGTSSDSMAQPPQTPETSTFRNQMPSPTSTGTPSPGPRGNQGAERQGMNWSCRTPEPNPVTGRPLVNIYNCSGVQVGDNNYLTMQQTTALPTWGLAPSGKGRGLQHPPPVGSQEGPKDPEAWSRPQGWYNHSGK

Kd (RIP3 [2]): 330 nM
Kd (RIP1 [3]): 880 nM
RIP1 selectivity (RIP1 [3]): 0.37
Structure (SMILES): CC(=O)c1c(Oc2ccc(F)c(NC(=O)Cc3cccc(C(F)(F)F)c3)c2)ccc2nc(NC(=O)C3CC3)sc12 [Compound 10]
anti-necroptosis activity improvement compared with TAK-632 (HT-29 cells [1]): more than 10 fold
EC50 (HT-29 cells [1]): 130 ± 60 nM
CC50 (Cytotoxicity): > 50000 nM

Kd (RIP3 [2]): 260 nM
Kd (RIP1 [3]): 710 nM
RIP1 selectivity (RIP1 [3]): 0.37
Structure (SMILES): O=C(Cc1cccc(C(F)(F)F)c1)Nc1cc(Oc2ccc3nc(NC(=O)C4CC4)sc3c2[N+](=O)[O-])ccc1F [Compound 9]
EC50 (HT-29 cells [1]): 480 ± 10 nM
CC50 (Cytotoxicity): > 50000 nM

Structure (SMILES): O=C(Cc1cccc(C(F)(F)F)c1)Nc1cc(Oc2cc3sc(NC(=O)C4CC4)nc3cc2F)ccc1F [Compound 25, N-(5-Fluoro-6-(4-fluoro-3-(2-(3-(trifluoromethyl)phenyl)acetamido)phenoxy)benzo[d]thiazol-2-yl)cyclopropanecarboxamide]
anti-necroptosis potency improvement compared with SZM-594 (HT-29 cells [1]; EC50 ratio versus SZM-594): 21 fold
anti-necroptosis activity improvement compared with TAK-632 (HT-29 cells [1]): 180 fold
inhibition of necroptosis induced by TSZ (HT-29 cells [1]; HT-29 cells, TSZ 12 h): dose-dependently inhibit necroptosis
EC50 (HT-29 cells [1]): 8 ± 1 nM
downstream phosphorylation of MLKL [4]: completely inhibited
phosphorylation of RIP1 and RIP3 ([4]; within 6 h): completely inhibit
colon length (C57BL/6 J mice [5]; 20 mg/kg, Day 13, P < 0.01 versus untreated colitis mice): longer colon length
alleviation of body weight in UC mice (C57BL/6 J mice [5]; 10 or 20 mg/kg intragastric, from Day 11): significantly dose-responsed speeded up
phosphorylation of RIP1, RIP3 and MLKL in colon tissue (C57BL/6 J mice [5]; Western blot, TUNEL): reducing the phosphorylation
mRNA of inflammatory cytokines (Il-6 and Il-1β) and chemokine receptors (Ccr-2 and Ccr-5) (C57BL/6 J mice [5]; colon tissue, qPCR): significantly reduced
protein expressions of IL-6 and IL-1β in colon tissue (C57BL/6 J mice [5]; dose–response manner): inhibited the protein expressions
level of FITC-dextran in the serum (C57BL/6 J mice [5]; intestinal permeability, versus DSS-disease mice): significantly lower
DARTS protection of RIP1 from protease digestion (RIP1 [6]): protected from protease digestion
TSZ-induced necrosome formation (RIP1-RIP3 necrosome): completely blocked
MRT inf (PK study in mice; iv, 1 mg/kg): 1.59 ± 0.43 h
Vd (PK study in mice; iv, 1 mg/kg): 1670 ± 856 L/kg
clearance (PK study in mice; iv, 1 mg/kg): 16.8 ± 4.8 mL/min/kg
half-life (PK study in mice; iv, 1 mg/kg): 1.67 ± 0.46 h
AUC (PK study in mice; iv, 1 mg/kg, AUC0‒t, 1 mg/kg i.v.): 1030 ± 350 ng·h/mL
AUC (PK study in mice; iv, 1 mg/kg, AUC0‒∞, 1 mg/kg i.v.): 1060 ± 354 ng·h/mL
Cmax (PK study in mice; po, 10 mg/kg): 381 ± 35 ng/mL
MRT inf (PK study in mice; po, 10 mg/kg): 2.74 ± 0.32 h
Tmax (PK study in mice; po, 10 mg/kg): 0.67 ± 0.29 h
bioavailability (PK study in mice; po, 10 mg/kg): 9.69 ± 2.31%
half-life (PK study in mice; po, 10 mg/kg): 1.18 ± 0.62 h
AUC (PK study in mice; po, 10 mg/kg, AUC0‒t, 10 mg/kg p.o.): 991 ± 218 ng·h/mL
AUC (PK study in mice; po, 10 mg/kg, AUC0‒∞, 10 mg/kg p.o.): 1030 ± 245 ng·h/mL
inhibition of necroptosis induced by TCZ (HT-29 cells [7]): dose-dependently inhibit necroptosis
attenuation of necroptosis in L929 cells (L929 cells): dose-dependently attenuated necroptosis
protective effects in the apoptosis model (HT-29 cells [8]): did not show any protective effects
DARTS detection of RIP3 after protease digestion (RIP3 [9]): not detected
activity toward RIP3 (RIP3 [2]; even at 5000 nmol/L): no apparent activity
death after single oral dose (healthy mice; 5 g/kg intragastric, 2 weeks, male and female mice): no death occurred
acute tolerability (healthy mice; 5 g/kg, 14-day period): well tolerated
CC50 (Cytotoxicity): > 50000 nM
body temperature loss in SIRS mice (C57BL/6 J mice [10]; 10 or 20 mg/kg intragastric, first 2–3 h after mTNF-α/Z-VAD-FMK): protected mice from body temperature loss
survival rate of SIRS mice (C57BL/6 J mice [10]; single dose 10 mg/kg): 60%
survival rate of SIRS mice (C57BL/6 J mice [10]; single dose 20 mg/kg): 100%

Structure (SMILES): N#Cc1cc(Oc2ccc(F)c(NC(=O)Cc3cccc(C(F)(F)F)c3)c2)cc2sc(NC(=O)C3CC3)nc12 [Compound 15]
EC50 (HT-29 cells [1]): > 10000 nM
anti-necroptosis activity (HT-29 cells [1]; at 10 μmol/L): completely eliminated the activity

Structure (SMILES): N#Cc1c(Oc2ccc(F)c(NC(=O)Cc3cccc(C(F)(F)F)c3)c2)ccc2nc(NC(=O)C3CC3)sc12 [Compound 5, N-(7-Cyano-6-(4-fluoro-3-(2-(3-(trifluoromethyl)phenyl)acetamido)phenoxy)benzo[d]thiazol-2-yl)cyclopropanecarboxamide]
CC50 [11]: > 50000 nM
